Measured values published in patent US20240254119A1 (THIRD HARMONIC BIO, INC., priority 2022, published 2024).

Key:
[1] = Kinetic solubility assay; format: physicochemical; details: kinetic solubility, 50 mM PB (pH 7.4), shaken 24 hours at RT
Outline: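 Test compounds from 10 mM DMSO stock were diluted in 50 mM phosphate buffer, pH 7.4, and shaken for 24 h at RT. After PTFE filtration and centrifugation, filtrate concentration was quantified by UPLC-UV/HPLC-UV against a standard curve.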

[2] = target: T1, BCRP (BCRP-MDCKII monolayer) (Homo sapiens, UniProt Q9UNQ0); test: MDCKII-BCRP bidirectional transport assay; format: in vitro ADME; details: for MDCK-BCRP: Papp A-B: apical to basolateral
T1 construct: host or cells: MDCKII (canine kidney) cells
T1 sequence (Q9UNQ0 1-655): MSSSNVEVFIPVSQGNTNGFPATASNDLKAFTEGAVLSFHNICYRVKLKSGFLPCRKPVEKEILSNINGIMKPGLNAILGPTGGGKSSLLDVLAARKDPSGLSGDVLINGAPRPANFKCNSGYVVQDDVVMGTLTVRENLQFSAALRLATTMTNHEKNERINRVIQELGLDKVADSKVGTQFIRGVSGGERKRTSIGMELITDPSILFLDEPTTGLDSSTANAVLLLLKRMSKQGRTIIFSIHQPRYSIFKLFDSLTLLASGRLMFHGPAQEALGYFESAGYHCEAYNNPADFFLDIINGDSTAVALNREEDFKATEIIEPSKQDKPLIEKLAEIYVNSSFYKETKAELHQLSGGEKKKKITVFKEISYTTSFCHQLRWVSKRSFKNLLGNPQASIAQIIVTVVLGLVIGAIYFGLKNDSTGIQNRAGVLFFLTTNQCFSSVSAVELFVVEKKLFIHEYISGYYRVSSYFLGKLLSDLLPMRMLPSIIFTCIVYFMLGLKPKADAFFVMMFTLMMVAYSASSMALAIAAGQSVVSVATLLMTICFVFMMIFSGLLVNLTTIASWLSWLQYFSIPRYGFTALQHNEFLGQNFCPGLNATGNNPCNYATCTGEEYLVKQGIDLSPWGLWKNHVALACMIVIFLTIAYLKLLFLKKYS
Outline: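 Bidirectional A→B and B→A transport across PreadyPort BCRP-MDCKII monolayers (days 12–15) was run in duplicate for 120 min at 37° C, 5% CO2 after a 15 min preincubation. Compound levels were measured by LC-MS/MS. Papp and recovery were calculated, with efflux ratio indicating transporter engagement.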

[3] = target: T2, PDGFRα (Homo sapiens, UniProt P16234); test: Caliper biochemical assay, PDGFRα; details: Table 6
T2 construct: purchased Millipore 14-467 (lot 26321_ACTI)
Outline: (§1)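 Kinase, FAM-labelled peptide substrate, ATP and Mn^2+ incubated with compound for 3 h at 25° C, then quenched with EDTA buffer. Substrate and phosphorylated product separated by microfluidic electrophoresis and quantified by fluorescence intensity; no-enzyme wells define 100% inhibition.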

[4] = target: T3, CSF-1R (Homo sapiens, UniProt P07333); test: Caliper biochemical assay, CSF-1R; details: Table 6
T3 construct: purchased Invitrogen PV3249 (lot 662393N)
Outline: as §1

[5] = target: T4, wtKIT (Homo sapiens, UniProt P10721); test: Caliper biochemical assay, wtKIT; details: Table 6, read-out: KIT Biochemical IC50 avg
T4 construct: 1888289AM in the reaction mixtures
Outline: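 Enzyme (5.0 nM wtKIT), 1 μM FAM-labelled peptide, 400 μM ATP and 10 mM MnCl2 in HEPES pH 7.5 with 1% DMSO, incubated 3 h at 25° C. EDTA quench; substrate and phosphoproduct separated by microfluidic electrophoresis and quantified by fluorescence.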

T2 sequence (P16234 24-1089): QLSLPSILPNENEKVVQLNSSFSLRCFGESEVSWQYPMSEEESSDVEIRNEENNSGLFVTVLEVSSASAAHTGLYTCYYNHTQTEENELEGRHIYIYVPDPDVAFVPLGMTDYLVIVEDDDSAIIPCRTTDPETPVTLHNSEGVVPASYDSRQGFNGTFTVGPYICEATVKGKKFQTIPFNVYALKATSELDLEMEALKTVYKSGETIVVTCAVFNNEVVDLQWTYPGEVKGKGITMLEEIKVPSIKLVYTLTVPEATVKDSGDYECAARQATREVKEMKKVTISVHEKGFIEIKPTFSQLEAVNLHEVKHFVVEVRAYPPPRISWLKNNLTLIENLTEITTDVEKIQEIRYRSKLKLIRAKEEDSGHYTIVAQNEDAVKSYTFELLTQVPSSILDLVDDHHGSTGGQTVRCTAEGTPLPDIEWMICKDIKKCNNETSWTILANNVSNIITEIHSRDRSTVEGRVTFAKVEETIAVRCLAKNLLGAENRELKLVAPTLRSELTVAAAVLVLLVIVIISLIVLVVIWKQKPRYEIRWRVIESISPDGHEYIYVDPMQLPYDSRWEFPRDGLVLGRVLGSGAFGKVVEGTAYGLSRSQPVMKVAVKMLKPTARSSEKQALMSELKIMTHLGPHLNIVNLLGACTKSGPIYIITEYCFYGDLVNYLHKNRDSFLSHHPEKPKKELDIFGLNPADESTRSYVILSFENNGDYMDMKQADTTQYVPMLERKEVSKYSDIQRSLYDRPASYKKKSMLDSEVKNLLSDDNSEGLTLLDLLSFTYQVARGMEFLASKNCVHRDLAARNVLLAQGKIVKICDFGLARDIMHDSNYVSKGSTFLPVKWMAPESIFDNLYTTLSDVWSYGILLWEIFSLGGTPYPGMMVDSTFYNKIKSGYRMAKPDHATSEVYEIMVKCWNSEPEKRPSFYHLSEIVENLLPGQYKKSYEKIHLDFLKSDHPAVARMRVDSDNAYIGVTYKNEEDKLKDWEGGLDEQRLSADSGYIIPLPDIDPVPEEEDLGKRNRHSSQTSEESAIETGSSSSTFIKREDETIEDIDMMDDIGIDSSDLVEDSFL
T3 sequence (P07333 20-972): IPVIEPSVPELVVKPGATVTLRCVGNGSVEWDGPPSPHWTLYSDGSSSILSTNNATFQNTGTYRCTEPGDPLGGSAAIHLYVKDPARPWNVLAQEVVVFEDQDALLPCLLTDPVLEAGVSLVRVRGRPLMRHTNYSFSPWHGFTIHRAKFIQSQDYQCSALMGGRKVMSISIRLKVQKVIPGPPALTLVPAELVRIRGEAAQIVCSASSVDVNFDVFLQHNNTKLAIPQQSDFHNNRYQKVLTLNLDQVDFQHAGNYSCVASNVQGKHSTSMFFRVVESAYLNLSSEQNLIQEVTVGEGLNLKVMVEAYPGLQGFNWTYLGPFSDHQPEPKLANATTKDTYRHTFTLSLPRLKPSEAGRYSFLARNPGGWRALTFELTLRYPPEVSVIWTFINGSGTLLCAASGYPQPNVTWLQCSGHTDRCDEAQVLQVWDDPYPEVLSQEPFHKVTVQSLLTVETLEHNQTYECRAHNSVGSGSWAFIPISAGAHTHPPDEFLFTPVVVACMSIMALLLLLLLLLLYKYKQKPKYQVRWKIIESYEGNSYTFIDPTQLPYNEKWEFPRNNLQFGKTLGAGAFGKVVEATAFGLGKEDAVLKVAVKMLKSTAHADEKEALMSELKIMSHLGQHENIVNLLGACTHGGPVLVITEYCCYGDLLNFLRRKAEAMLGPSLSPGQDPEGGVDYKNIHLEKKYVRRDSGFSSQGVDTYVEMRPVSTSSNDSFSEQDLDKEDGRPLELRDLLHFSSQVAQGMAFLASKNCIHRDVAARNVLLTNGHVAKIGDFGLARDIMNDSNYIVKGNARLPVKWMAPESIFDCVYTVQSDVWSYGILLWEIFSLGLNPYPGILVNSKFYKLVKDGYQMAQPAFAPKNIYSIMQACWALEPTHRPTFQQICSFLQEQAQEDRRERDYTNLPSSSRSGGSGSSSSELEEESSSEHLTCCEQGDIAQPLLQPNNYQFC
T4 sequence (P10721 26-976): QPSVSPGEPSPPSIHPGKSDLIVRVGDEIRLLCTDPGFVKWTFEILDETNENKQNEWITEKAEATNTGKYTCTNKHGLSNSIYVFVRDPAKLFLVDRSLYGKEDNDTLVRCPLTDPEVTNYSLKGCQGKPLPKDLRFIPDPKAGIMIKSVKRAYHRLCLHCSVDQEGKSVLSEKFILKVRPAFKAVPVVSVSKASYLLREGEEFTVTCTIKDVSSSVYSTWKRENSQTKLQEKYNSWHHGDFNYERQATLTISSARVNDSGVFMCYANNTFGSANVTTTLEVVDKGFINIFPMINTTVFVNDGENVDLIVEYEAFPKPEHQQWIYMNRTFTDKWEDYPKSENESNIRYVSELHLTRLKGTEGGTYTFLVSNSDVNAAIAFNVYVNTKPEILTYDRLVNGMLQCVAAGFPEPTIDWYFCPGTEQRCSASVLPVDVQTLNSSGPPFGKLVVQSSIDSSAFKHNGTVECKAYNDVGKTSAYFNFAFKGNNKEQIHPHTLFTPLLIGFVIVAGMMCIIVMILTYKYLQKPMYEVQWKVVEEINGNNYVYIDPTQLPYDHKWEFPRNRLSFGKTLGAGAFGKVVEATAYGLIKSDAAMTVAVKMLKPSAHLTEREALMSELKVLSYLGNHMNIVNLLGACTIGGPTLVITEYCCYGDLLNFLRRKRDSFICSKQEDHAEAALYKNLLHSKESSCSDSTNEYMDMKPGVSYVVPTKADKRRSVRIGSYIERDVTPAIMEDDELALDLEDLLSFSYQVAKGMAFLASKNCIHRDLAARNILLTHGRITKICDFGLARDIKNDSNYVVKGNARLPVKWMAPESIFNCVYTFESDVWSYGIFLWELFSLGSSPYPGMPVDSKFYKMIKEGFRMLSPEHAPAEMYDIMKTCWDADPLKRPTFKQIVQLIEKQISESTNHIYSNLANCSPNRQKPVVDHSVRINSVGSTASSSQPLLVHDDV

Row | Structure (SMILES) | Solubility (μM) [1] | MDCK-BCRP: Efflux Ratio [2] | MDCK-BCRP: Papp A-B [2] | IC50 [3] | IC50 [4] | IC50 [5]
1 | Cc1ccc(-c2noc(C(C)NS(C)(=O)=O)n2)cc1NC(=O)c1cnc2ccccn12 (single isomer, unassigned) [Compound I-237] | ** (a solubility greater than 10 μM and less than or equal to 50 μM) | 11.5 | 1.66 10^−6 cm/s | 5000 to 30000 nM | 500 to 5000 nM | 50 to 500 nM
2 | Cc1ccc(-c2noc(C3CCN3)n2)cc1NC(=O)c1cnc2ccccn12 (racemic) [Compound I-394] | * (a solubility greater than 50 μM) | 23.2 | 1.42 10^−6 cm/s | 5000 to 30000 nM | 50 to 500 nM | ≤ 50 nM
3 | CCCNc1ccn2c(C(=O)Nc3cc(-c4noc([C@H]5C[C@@H]5F)n4)ccc3C)cnc2c1 [Compound I-304] | **** (a solubility less than or equal to 2 μM) | 3.43 | 5.05 10^−6 cm/s | ≤ 50 nM | ≤ 50 nM | ≤ 50 nM
4 | Cc1ccc(-c2noc(C(C)NS(C)(=O)=O)n2)cc1NC(=O)c1cnc2ccccn12 (single isomer, unassigned) [Compound I-238] | * (a solubility greater than 50 μM) | 22.7 | 0.92 10^−6 cm/s | 5000 to 30000 nM | 50 to 500 nM | ≤ 50 nM
5 | Cc1ccc(-c2noc(CC(C)O)n2)cc1NC(=O)c1cnc2ccccn12 (racemic) [Compound I-363] | ** (a solubility greater than 10 μM and less than or equal to 50 μM) | 5.58 | 3.24 10^−6 cm/s | 500 to 5000 nM | 50 to 500 nM | ≤ 50 nM
6 | Cc1ccc(-c2noc(C3(N)CC4(CC(F)(F)C4)C3)n2)cc1NC(=O)c1cnc2ccccn12 [Compound I-307] | ** (a solubility greater than 10 μM and less than or equal to 50 μM) | 3.77 | 7.39 10^−6 cm/s | 500 to 5000 nM | ≤ 50 nM | ≤ 50 nM
7 | COC(=O)N1CC(c2nc(-c3ccc(Cl)c(NC(=O)c4cnc5ccccn45)c3)no2)C1 [Compound I-339] | **** (a solubility less than or equal to 2 μM) | 1.75 | 13 10^−6 cm/s | 500 to 5000 nM | ≤ 50 nM | ≤ 50 nM
8 | COC(=O)N1CC(c2nc(-c3ccc(C)c(NC(=O)c4cnc5cc(O[C@@H](C)CO)ccn45)c3)no2)C1 (single isomer, unassigned) [Compound I-217] | ** (a solubility greater than 10 μM and less than or equal to 50 μM) | 28.1 | 0.86 10^−6 cm/s | 50 to 500 nM | ≤ 50 nM | ≤ 50 nM
9 | O=C(Nc1cc(-c2noc([C@H]3C[C@@H]3F)n2)ccc1Cl)c1cnc2ccccn12 [Compound I-341] | **** (a solubility less than or equal to 2 μM) | 0.84 | 10.1 10^−6 cm/s | 50 to 500 nM | ≤ 50 nM | ≤ 50 nM
10 | Cc1ccc(-c2noc(CC(O)C(F)F)n2)cc1NC(=O)c1cnc2ccccn12 (stereo not drawn) [Compound I-114] | **** (a solubility less than or equal to 2 μM) | 8.07 | 3.03 10^−6 cm/s | 500 to 5000 nM | 50 to 500 nM | ≤ 50 nM
11 | Cc1ccc(-c2noc(C3(C)CC(F)(F)CN3)n2)cc1NC(=O)c1cnc2ccccn12 (racemic) [Compound I-328] | *** (a solubility greater than 2 μM and less than or equal to 10 μM) | 4.55 | 6.06 10^−6 cm/s | 500 to 5000 nM | 50 to 500 nM | ≤ 50 nM
12 | Cc1ccc(-c2noc(CC3CC3(F)F)n2)cc1NC(=O)c1cnc2ccccn12 (stereo not drawn) [Compound I-125] | **** (a solubility less than or equal to 2 μM) | 1.6 | 9.07 10^−6 cm/s | 50 to 500 nM | ≤ 50 nM | ≤ 50 nM
13 | Cc1nc(-c2ccc(C)c(NC(=O)c3cnc4ccccn34)c2)no1 [Compound I-360] | ** (a solubility greater than 10 μM and less than or equal to 50 μM) | 1.52 | 9.54 10^−6 cm/s | 500 to 5000 nM | 500 to 5000 nM | ≤ 50 nM
14 | Cc1ccc(-c2noc([C@H]3C[C@@H]3F)n2)cc1NC(=O)c1cnc2cc(OC(C)C)ccn12 [Compound I-88] | **** (a solubility less than or equal to 2 μM) | 0.89 | 29 10^−6 cm/s | 50 to 500 nM | ≤ 50 nM | ≤ 50 nM
15 | Cc1ccc(-c2noc(C3CC(OCCF)C3)n2)cc1NC(=O)c1cnc2ccccn12 (stereo not drawn) [Compound I-369] | ** (a solubility greater than 10 μM and less than or equal to 50 μM) | 1.62 | 8.93 10^−6 cm/s | 500 to 5000 nM | 50 to 500 nM | ≤ 50 nM
16 | Cc1ccc(-c2noc(C3CC4(CCC4)C3)n2)cc1NC(=O)c1cnc2ccccn12 [Compound I-367] | **** (a solubility less than or equal to 2 μM) | 1.18 | 0.83 10^−6 cm/s | ≤ 50 nM | ≤ 50 nM | ≤ 50 nM
17 | Cc1ccc(-c2noc(CCO)n2)cc1NC(=O)c1cnc2ccccn12 [Compound I-306] | * (a solubility greater than 50 μM) | 23.2 | 1.46 10^−6 cm/s | 5000 to 30000 nM | 50 to 500 nM | ≤ 50 nM
18 | Cc1ccc(-c2noc([C@H]3CCC(=O)N3)n2)cc1NC(=O)c1cnc2ccccn12 (racemic) [Compound I-327] | * (a solubility greater than 50 μM) | 73.2 | 0.28 10^−6 cm/s | 5000 to 30000 nM | ≤ 50 nM | 50 to 500 nM
